According to patent US20220233492A1, “METHOD OF PREVENTING OR TREATING POSTOPERATIVE PAIN” (priority 2019, published 2022):
“Also recorded” adds a separate entry of the source.

Experiments:
[1] = tested on: healthy human subjects or subjects undergoing major surgeries; assay: safety in healthy human subjects or subjects undergoing major surgeries; format: in vivo
[2] = double-blinded, randomized preclinical studies with PK/PD correlation analyses; format: in vivo
[3] = tested on: postoperative pain, subjects for an elective bunionectomy; assay: Example 3: IV infusion after nerve block removal vs placebo, elective bunionectomy; format: in vivo, human
Description: The primary-outcome measure, pain intensity, was evaluated using NRS (0-10) at the scheduled time points through 48 hours post-emergence. […] Subjects were given 2 stopwatches to start at the time of the start of the study drug infusion (T=0) and were instructed to stop the first stopwatch when “perceptible pain relief”, and the second stopwatch when “meaningful pain relief” is felt by the Time 12 hr.

[4] = tested on: postoperative pain, subjects for an open elective abdominoplasty; assay: Example 2: IV infusion started before anesthesia induction vs placebo, open elective abdominoplasty; format: in vivo, human
[5] = tested on: postoperative pain, subjects underwent laparoscopic colorectal surgery; assay: Example 1: postoperative IV infusion vs placebo after laparoscopic colorectal surgery; format: in vivo, human
Description: Subjects who reported a pain intensity score of at least 4 on the NRS (0-10) after regaining consciousness in the post-anesthesia care unit (PACU) were enrolled in the study. The VVZ-149 group received an 8-hours IV infusion at a loading dose of 1.8 mg/kg for 0.5 h followed by a maintenance dose of 1.3 mg/kg/h for 7.5 h, and the placebo group received a placebo with the same dosing regimen. […] The primary-outcome measure, pain intensity, was evaluated using NRS (0-10) at the scheduled time points through 24 hours post-emergence. […] In rescued patients, anxiety was also highly correlated with both depression (r=0.285, p=0.041) and PCS score (r=0.334, p=0.016).

[6] = tested on: postoperative pain, subjects underwent laparoscopic or robotic-assisted gastrectomy; assay: Example 4: intraoperative start IV infusion vs placebo, laparoscopic or robotic-assisted gastrectomy; format: in vivo, human; settings: for reduction of total amount of opioid consumed vs placebo: p<0.05

CCCCOc1c(OC)cc(C(=O)NCC2(N(C)C)CCOCC2)cc1OC [VVZ-149, 4-butoxy-N-((4-(dimethylamino)tetrahydro-2H-pyran-4-yl)methyl)-3,5-dimethoxybenzamide]
clinically significant adverse events (AEs) [1]: No clinically significant adverse events | pain relief [2]: dose-dependent pain relief | sedative or adverse effects [2]: without significant sedative or adverse effects | anti-allodynic effect ([2]; versus morphine or gabapentin): comparable to morphine or gabapentin | pain intensity (NRS 0-10) vs placebo ([3]; 10-hours IV infusion 160 mg 0.5 h + 840 mg 9.5 h after nerve block removal, FIG. 16a): lower pain intensity | opioid consumption vs placebo ([3]; IV morphine rescue, all patients): less opioid consumption | morphine requested and consumed vs placebo subgroup ([3]; subgroup predose PI≥7, FIG. 17a, 17b): significant less morphine was requested and consumed | pain intensity vs placebo subgroup ([3]; subgroup with severe postoperative pain, predose PI≥7, FIG. 16b): significant lower pain intensity | patients reporting perceptible pain relief ([3]; within 30 minutes after the start of infusion, FIG. 18): More than 50% | total amount of rescue opioid consumed vs placebo ([4]; 0-6, 0-12, 0-24 hours, FIG. 9): significant lower | reduction of postoperative pain ([4]; 10-hours IV infusion 160 mg 0.5 h + 840 mg 9.5 h, starting approx. 30 minutes before induction of anesthesia): opioid comparable reduction of postoperative pain | number of requests for rescue opioid vs placebo ([4]; IV morphine rescue, 0-24 hours, FIG. 8): significant lower | proportion of opioid-free subjects vs placebo ([4]; during the first 12 hours post-emergence, FIG. 10): higher proportion of subjects that are opioid-free | pain intensity (NRS 0-10) vs placebo ([5]; 8-hours IV infusion 1.8 mg/kg 0.5 h + 1.3 mg/kg/h […], through 24 hours post-emergence, FIG. 1): lower pain intensity | opioid consumption (hydromorphone via PCA and rescue) vs placebo ([5]; all patients, FIG. 2): significant less opioid consumption | number of PCA demands vs placebo ([5]; hydromorphone PCA, FIG. 3 and FIG. 4): significantly reduced the patients' need for postoperative analgesia; also recorded: significantly lower | pain intensity vs placebo subgroup ([5]; subgroup of rescued patients (rescue hydromorphone in first 2 hours post-emergence), FIG. 7): reduced pain intensity | decrease in hydromorphone use compared to placebo ([5]; subgroup of rescued patients, FIG. 7): 40% | pain intensity vs placebo subgroup ([5]; subgroup with severe postoperative pain (predose PI 7), FIG. 5a): significant lower pain intensity | hydromorphone (via PCA and/or rescue) requested and consumed vs placebo subgroup ([5]; subgroup with severe postoperative pain (predose PI 7), FIG. 5b): less hydromorphone (via PCA and/or rescue) was requested and consumed | mean NRS rest vs placebo ([6]; 10 h IV infusion 1.8 mg/kg 0.5 h + 1.3 mg/kg/hr 9.5 h, significance at T=4 (p<0.05), FIG. 12): lower at any given timepoint through 24 hrs post-emergence except at T=24 | opioid sparing (opioid consumed vs placebo) ([6]; for 10 hours post-emergence, p<0.01, FIG. 14): 31.8% | number of PCA demand vs placebo ([6]; in vivo): significantly lessened at T=2 and T=10 | reduction of total amount of opioid consumed vs placebo ([6]; rescued patient group, 0-10 hr post-emergence): 31.4% | reduction of total amount of opioid consumed vs placebo ([6]; rescued patient group, 10-24 hr post-emergence): 35% | pain intensity (PIs) vs placebo ([6]; rescued patient group, significance at 4 hr (p<0.01) and 10 hr post-emergence (p<0.05), FIG. 15b): much lower
